The text below walks through data of patent US7659278B2, “Use of low molecular weight compounds for preparing a medicament useful in treating mutant p53 mediated diseases” (Aprea AB, priority 2002, dated 2010).

Read-outs that look alike come from different tables or passages of the source.

The subject of test [1] is Saos-2-His-273 osteosarcoma cells. In words: WST-1 growth inhibition by structural analogues, Saos-2-His-273 cells with or without doxycycline. The following applies: for IC50: Homo sapiens, 48 h, WST-1; for R Saos-2His273: ratio IC50p53null/IC50mtp53. It is filed as cell-based, human. On the procedure:
(§1) After 12h cells were treated with analogues and incubated with compounds for 48 h. Then WST-1 cell proliferating reagent was added to each well and cell survival was estimated by reading absorbance at 450 nm by ELISA reader. The effect of structural analogues on cell growth was tested using different concentrations of the compounds, ranging from 0.1; 1; 5; 10 and 25 μM. After that curves of growth inhibition were generated based on a rational function Y=(b+cx)/1+ax by using Microcal Origin software. The coefficients (a,b,c) of the equation were determined by employing Levenberg-Marquardt algorithm.
(§2) The specificity of each compound was determined by calculation of ratio IC50p53null/IC50mtp53. Ratios equal to 1 or less are indicating non-specific activity.

The test system of test [2] is H1299-His-175 lung adenocarcinoma cells. Put plainly: WST-1 growth inhibition by structural analogues, H1299-His-175 cells with or without doxycycline. It is filed as cell-based, human. The following applies: for IC50: Homo sapiens, 48 h, WST-1; for R H1299-His175: ratio IC50p53null/IC50mtp53. On the procedure:
as §1, §2

Setting [3] is: Dox+ (p53 null), read-out: IC50 Saos-2His273 Dox+.
The mark [4] stands for this setting: Dox− (mutant p53 expressed), read-out: IC50 Saos-2His273 Dox−.
Where [5] appears, read: Dox+ (p53 null), read-out: IC50 H1299-His175 Dox+.
[6] abbreviates: Dox− (mutant p53 expressed), read-out: IC50 H1299-His175 Dox−.

Broadly, the IC50 is the concentration that gives 50% inhibition. With `O=C1C2CCN(CC2)C1CN1C=NC2C(Cl)=NC(Cl)=NC21` (stereo not drawn) [2-(2,6-dichloro-9-methylenepurine)-3-quinuclidinone], the IC50 was found to be 6.2 µM in test [1] (setting [3]), 2.54 µM in test [1] (setting [4]), 4.9 µM in test [2] (setting [5]) and 3.2 µM in test [2] (setting [6]). Also, the “R Saos-2His273” value in test [1] was found to be 2.44. In addition, the “R H1299-His175” value in test [2] came out at 1.53.
In the case of `Cc1cc2ncn(CC3C(=O)C4CCN3CC4)c2cc1C` (stereo not drawn) [2-(5,6-dimethyl-benzimidazole-1-methylene)-3-quinuclidinone], the IC50 in test [1] (setting [3]) turned out to be 9.24 µM; in test [1] (setting [4]) it was 4 µM; in test [2] (setting [5]) it was 7.1 µM; in test [2] (setting [6]) it was 4.75 µM. For the same compound, the “R Saos-2His273” value in test [1] worked out at 2.31. The “R H1299-His175” value in test [2] is on record as 1.51.
`COc1ncnc2c1ncn2CC1C(=O)C2CCN1CC2` (stereo not drawn) [2-(6-methoxypurine-9-methylene)-3-quinuclidinone]: the IC50 stood at 26 µM in test [1] (setting [3]), 13.7 µM in test [1] (setting [4]), 23.2 µM in test [2] (setting [5]) and 15.5 µM in test [2] (setting [6]). In addition, the “R Saos-2His273” value in test [1] was found to be 1.9. In addition, the “R H1299-His175” value in test [2] turned out to be 1.5.
As to `Cn1c(=O)c2c([nH]c(=O)n2CC2C(=O)C3CCN2CC3)n(C)c1=O` (stereo not drawn) [2-(7-methylene-1,3-dimethyluric acid)-3-quinuclidinone], the IC50 was 5.51 µM in test [1] (setting [3]), 2.74 µM in test [1] (setting [4]), 5.2 µM in test [2] (setting [5]) and 4.1 µM in test [2] (setting [6]). Also, the “R Saos-2His273” value in test [1] came to 2.01. Further, the “R H1299-His175” value in test [2] turned out to be 1.26.
In the case of `Nc1ncnc2nnn(CC3C(=O)C4CCN3CC4)c12` (stereo not drawn) [2-(8-azaadenine-7-methylene)-3-quinuclidinone], the IC50 in test [1] (setting [3]) turned out to be 7.27 µM; in test [1] (setting [4]) it was 2.79 µM; in test [2] (setting [5]) it was 4.2 µM; in test [2] (setting [6]), 3.3 µM. For the same compound, the “R Saos-2His273” value in test [1] was 2.61. Also, the “R H1299-His175” value in test [2] was found to be 1.27.
As to `C=Cc1nc2ccccc2c(=O)[nH]1` [2-ethylene-4(3H)-quinazolinone], the IC50 in test [1] (setting [3]) came out at 5.05 µM; in test [1] (setting [4]), 3.97 µM; in test [2] (setting [5]), 3.9 µM; in test [2] (setting [6]) it was 1.4 µM. In addition, the “R Saos-2His273” value in test [1] was 1.27. The “R H1299-His175” value in test [2] came to 2.8.
Consider `CN1C(=O)C=CC1=O` [N-methylmaleimide], for which the concentration for half-maximal inhibition (IC50) in test [1] (setting [3]) stood at 6.45 µM; in test [1] (setting [4]), 4.04 µM; in test [2] (setting [5]), 5.4 µM; in test [2] (setting [6]) it was 2.9 µM. Besides, the “R Saos-2His273” value in test [1] was 1.6. In test [2], the “R H1299-His175” value was 1.86.
`O=C1C=CC(=O)N1` [maleimide]: the IC50 came to 7.59 µM in test [1] (setting [3]), 3.37 µM in test [1] (setting [4]), 5.2 µM in test [2] (setting [5]) and 3 µM in test [2] (setting [6]). For the same compound, the “R Saos-2His273” value in test [1] turned out to be 2.25. Moreover, the “R H1299-His175” value in test [2] turned out to be 1.73.
